Assay results as given in PubChem BioAssay (NCI).
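Compound exposure: 48 hours, 5 concentrations, 96-well plates. GI50 = concentration required for 50% inhibition of growth. TGI marks complete inhibition of growth.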

Tests used:
Test in all cases: DTP human tumour cell line panel, 48 h
[1] = system: EKVX NSCLC
[2] = system: CAKI-1 renal
[3] = system: SK-OV-3 ovarian
[4] = system: PC-3 prostate
[5] = system: OVCAR-4 ovarian
[6] = system: HCT-15 colon
[7] = system: DU-145 prostate
[8] = system: 786-0 renal
[9] = system: SK-MEL-5 melanoma
[10] = system: HCC-2998 colon

| Structure (SMILES) | GI50 [1] [µM] | TGI [1] [µM] | GI50 [2] [nM] | TGI [2] [µM] | GI50 [3] [µM] | TGI [3] [µM] | GI50 [4] [nM] | TGI [4] [µM] | GI50 [5] [µM] | TGI [5] [µM] | TGI [6] [µM] | GI50 [7] [nM] | TGI [7] [µM] | TGI [8] [µM] | GI50 [9] [nM] | TGI [9] [µM] | TGI [10] [µM] |
| --- | --- | --- | --- | --- | --- | --- | --- | --- | --- | --- | --- | --- | --- | --- | --- | --- | --- |
| Cc1c(CNc2ccc(Cl)c(C(=O)NC(CC(=O)O)C(=O)O)c2)ccc2nc(N)nc(N)c12 (centres undefined) | 284 | > 1000 | 617 | > 1000 | 800 | > 1000 | < 10 | > 1000 | 265 | > 1000 | > 1000 | 594 | > 1000 | > 1000 | 360 | > 1000 |  |
| C=Nc1ccc([N+](=O)[O-])cc1 |  | > 100 |  | > 100 |  | > 100 |  |  |  | > 100 | > 100 |  |  | > 100 |  | > 100 | > 100 |
| Nn1c(Cc2ccc(Cl)cc2)n[nH]c1=O |  | > 100 |  | > 100 |  | > 100 |  |  |  | > 100 | > 100 |  | > 100 | > 100 |  | > 100 | > 100 |
| CC(C)(C)c1cc(C(O)(C(=O)O)C(=O)O)cc(C(C)(C)C)c1O |  | > 100 |  | > 100 |  | > 100 |  | > 100 |  | > 100 | > 100 |  | > 100 | > 100 |  | > 100 |  |
| CC(=O)Nc1ccc2c(C(=O)O)c(C)c(=O)[nH]c2n1 |  | > 100 |  | > 100 |  | > 100 |  | > 100 |  |  | > 100 |  | > 100 | > 100 |  | > 100 |  |
| O=S(=O)(c1ccccc1)n1c(C(O)c2ccncc2)cc2ccccc21 (centres undefined) |  | > 100 |  | > 100 |  | > 100 |  | > 100 |  | > 100 | > 100 |  | > 100 | > 100 |  | 35.4 |  |
| COC(=O)C1=C(C)N2CCCOC2(C)C(C(=O)OC)C1c1cccc(Cl)c1 (centres undefined) |  | 89.3 |  | 92.5 |  |  |  |  |  | > 100 |  |  |  |  |  | > 100 | > 100 |
| CCNc1nc(N)c(C(=O)c2ccc(Cl)cc2)s1 |  | 45.5 |  |  |  | > 100 |  | > 100 |  | > 100 | > 100 |  | > 100 | > 100 |  | > 100 |  |
| Cc1cc2c(cc1-c1cc3c(cc1C)C(C(C)C)=C(O)C(=O)/C3=C\Nc1nc(-c3ccccc3)cs1)/C(=C/Nc1nc(-c3ccccc3)cs1)C(=O)C(O)=C2C(C)C |  | 52.1 |  | > 100 |  | 95.2 |  | 37.3 |  | 86.7 | 58.4 |  | 55 | > 100 |  | 31.4 |  |
| Cc1ccc(S(=O)(=O)NC(=O)NC(Cc2c[nH]c3ccccc23)C(=O)O)cc1 (centres undefined) |  |  |  |  |  | > 100 |  | > 100 |  | > 100 | > 100 |  | > 100 | > 100 |  | > 100 |  |
| O=C1COC(c2ccccc2O)=NN1CCCN1CCCC1 |  | > 100 |  | > 100 |  | > 100 |  | > 100 |  | > 100 | > 100 |  | > 100 | > 100 |  | > 100 |  |
| COc1cc2c(cc1OC)C1CN3C(=O)CCC3C(O)C1c1cc(OC)c(OC)cc1-2 (centres undefined) |  | > 100 |  | > 100 |  | > 100 |  |  |  | > 100 | > 100 |  | > 100 | > 100 |  | > 100 | > 100 |
| CN(C)CCCn1c(Cc2ccccc2)nc2cc(C(F)(F)F)ccc21 |  | 67.6 |  | 51.1 |  | 63.2 |  | > 100 |  | > 100 | 69.6 |  | > 100 | 33.9 |  | 33.2 |  |
| CN(C)N=Nc1ccc([N+](=O)[O-])cc1C(N)=O |  | > 100 |  | > 100 |  | > 100 |  |  |  | > 100 | > 100 |  |  |  |  | > 100 | > 100 |
| CC(=O)Nc1ccc(S(=O)(=O)Nc2nnc(S(N)(=O)=O)s2)cc1 |  | > 100 |  | > 100 |  | > 100 |  |  |  | > 100 | > 100 |  | > 100 | > 100 |  |  | > 100 |
| CC1CN=C(Nc2cccc(C(F)(F)F)c2)S1 (centres undefined) |  | > 100 |  |  |  | > 100 |  |  |  |  | > 100 |  | > 100 |  |  |  | > 100 |
| Cc1cn(C2CC(O)C(CO)C2C)c(=O)[nH]c1=O (centres undefined) |  | > 100 |  |  |  | > 100 |  |  |  | > 100 | > 100 |  |  |  |  |  | > 100 |
| CO/C(=N\N=C\c1ccc(Cl)cc1)c1ccncc1 |  | > 100 |  | > 100 |  | > 100 |  |  |  | > 100 | > 100 |  |  |  |  | > 100 | > 100 |
| C/C(O)=C/c1nc2ccccc2nc1/C=C(/C)O |  | 71.5 |  | > 100 |  | > 100 |  | > 100 |  | 48.5 | > 100 |  | 70.4 | 45.8 |  | 35.4 |  |
| CC(C)(C)C#C[P+](c1ccccc1)(c1ccccc1)c1ccccc1 |  | 4.1 |  | 2.91 |  | 1.81 |  |  |  | 1.42 | 5.9 |  |  | 1.51 |  | 0.634 | 0.986 |
